The results in this text go back to US4775674A, “Imidazoquinolinylether derivatives useful as phosphodiesterase and blood aggregation inhibitors” (Bristol-Myers Company, priority 1986, dated 1988).

The subject of test [1] is adenosine diphosphate (ADP)-induced platelet aggregation. In words: In vitro inhibition of platelet aggregation, ADP-induced (rabbit platelet rich plasma). Format: cell-based. The following applies: Oryctolagus cuniculus, ADP 0.5 mcg/ml, read-out: Platelet Inhibition In Vitro - Rabbit PRP EC50 vs. ADP. The method, then:
(§1) The aggregometer method of Born (1), as modified by Mustard, et al. (2) was used to assess the in vitro activity of the various compounds as to inhibition of adenosine diphosphate (ADP) and collagen-induced platelet aggregation. Platelet rich plasma (PRP) was separated by centrifugation from citrated (3.8 percent) rabbit blood. […] The various compounds tested were dissolved in dimethylsulfoxide (DMSO) so that 5 mcl added to the platelet rich plasma would yield the desired test concentration. Vehicle control trials were done and compared with aggregation induced in platelet rich plasma containing various concentrations of the test compounds. Dose response curves were obtained and Effective Concentration (EC50) values calculated.

Test [2] concerns collagen-induced platelet aggregation. In words: In vitro inhibition of platelet aggregation, collagen-induced (rabbit platelet rich plasma). The test is classed as cell-based. The following applies: Oryctolagus cuniculus, collagen suspension 0.05 ml, read-out: Platelet Inhibition In Vitro - Rabbit PRP EC50 vs. collagen. How it is done:
as §1

Test [3] concerns platelet aggregation (Ex Vivo vs. ADP). Put plainly: Inhibition of platelet aggregation following oral administration (Ex vivo). The following applies: Rattus norvegicus, rats, oral by gavage, 2 hours after dosing. The test is classed as in vivo. The method, then: This test is sometimes referred to in the art as an Ex vivo method and was initially described by Fleming, et al., Arch. Int. Pharmacodyn. Ther., 199, 164 (1972). Briefly, the assay is essentially carried out as follows.
Aggregometry is performed in vitro as previously described on platelet rich plasma samples obtained from rats dosed with either test compounds or the vehicle. In all cases, activity is determined 2 hours after the drug is administered orally at various doses by gavage as a suspension in […] plus a few drops of Tween 20.

Test [4] has as its target T1, cAMP phosphodiesterase (human platelets) (Homo sapiens, UniProt Q14432).
T1 construct: enzynme obtained from human platelets; from tissue; host or cells: human platelets
In words: Inhibition of cyclic AMP phosphodiesterase. Format: biochemical. The following applies: PDE from human platelets. How it is done: This assay is carried out essentially as described by Thompson, et al., Methods in Enzymology, 38, 205-212 (1974). Briefly, tritium labeled cyclic adenosine monophosphate (cAMP) is incubated with a phosphodiesterase (PDE) enzynme obtained from human platelets which converts a portion of the cAMP to 5'AMP in culture tubes. This reaction is terminated by submerging the tubes in a boiling water bath after which they are placed on ice and an aliquot of snake venom is added to each tube. This, during a second incubation, converts the 5'AMP to adenosine. Ion exchange resin is added to bind the remaining cyclic AMP. The tubes are centrifuged to sediment the resin and a portion of the clear supernatent (which contains radioactive adenosine) is counted in a liquid scintillation counter. The cAMP phosphodiesterase inhibition activity of a test agent is determined by pre-incubating the PDE enzyme preparation with the test agent.

In test [5] the test system is ferrets (right ventricular contractile force, blood pressure). In words: In vivo inotropic activity in ferrets. The arrangement: species or system ferret. The following applies: Mustela putorius, 1 h, anesthetized ferret, intraduodenal, 60 minutes. How it is done:
This test is carried out in ferrets as follows. Fasted anesthetized ferrets are instrumented to study hemodynamic parameters as well as right ventricular contractile force (RVCF) using a Walton-Brodie open strain guage arch. Drugs are administered intraduodenally as solutions in DMSO (1 mL or less) and effects on myocardial contractile force and other parameters are monitored for 60 minutes after dosing. Changes in contractile force in response to drug treatment are expressed in terms of percent change from predose control.

Where [6] appears, read: vs predose control, read-out: Maximum Percentage Change Right Ventricular Contractile Force (RVCF).
[7] abbreviates: read-out: Maximum Percentage Change Blood Pressure.

≈ marks a conversion by molar mass, not a printed value. Like-named read-outs stand apart in the source and are kept apart here.

T1 sequence (Q14432 whole entry): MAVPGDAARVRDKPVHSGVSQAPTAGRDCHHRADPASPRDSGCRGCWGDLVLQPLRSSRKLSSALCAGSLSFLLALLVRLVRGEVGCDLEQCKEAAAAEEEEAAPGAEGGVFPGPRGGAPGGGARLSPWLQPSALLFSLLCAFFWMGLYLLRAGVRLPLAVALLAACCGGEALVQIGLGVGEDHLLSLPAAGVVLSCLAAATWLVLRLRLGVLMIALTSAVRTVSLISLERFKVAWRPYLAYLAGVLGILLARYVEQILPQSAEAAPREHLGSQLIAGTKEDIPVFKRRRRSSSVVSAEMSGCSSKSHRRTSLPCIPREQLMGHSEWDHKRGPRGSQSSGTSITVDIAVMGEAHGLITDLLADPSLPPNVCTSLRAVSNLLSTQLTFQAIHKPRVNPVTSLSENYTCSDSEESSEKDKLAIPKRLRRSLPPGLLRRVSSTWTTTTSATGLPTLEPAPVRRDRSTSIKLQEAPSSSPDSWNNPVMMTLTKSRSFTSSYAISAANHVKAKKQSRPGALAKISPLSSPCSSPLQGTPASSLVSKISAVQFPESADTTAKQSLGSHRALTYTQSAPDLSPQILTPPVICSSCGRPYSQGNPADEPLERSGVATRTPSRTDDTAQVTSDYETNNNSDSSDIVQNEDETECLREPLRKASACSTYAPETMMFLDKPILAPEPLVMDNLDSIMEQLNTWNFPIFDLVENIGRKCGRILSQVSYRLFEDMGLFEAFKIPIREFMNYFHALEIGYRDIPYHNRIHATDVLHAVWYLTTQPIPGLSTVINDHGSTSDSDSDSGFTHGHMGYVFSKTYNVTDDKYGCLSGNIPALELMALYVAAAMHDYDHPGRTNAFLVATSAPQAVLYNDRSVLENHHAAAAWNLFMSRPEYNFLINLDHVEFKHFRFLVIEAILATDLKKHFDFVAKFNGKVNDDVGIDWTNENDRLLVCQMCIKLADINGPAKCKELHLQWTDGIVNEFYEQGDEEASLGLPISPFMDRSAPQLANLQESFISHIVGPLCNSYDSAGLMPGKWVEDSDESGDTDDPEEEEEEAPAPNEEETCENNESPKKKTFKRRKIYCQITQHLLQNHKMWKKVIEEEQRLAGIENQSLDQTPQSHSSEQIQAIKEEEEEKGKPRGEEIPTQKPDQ

Regarding `COC(=O)CCCOc1ccc2nc3[nH]c(=O)[nH]c3cc2c1` [Example 10, Methyl 4-[(2,3-Dihydro-2-oxo-1H-imidazo[4,5-b]quinolin-7-yl)oxy]butanoate], the EC50 in test [1] came to 20 ng/mL (≈ 0.0664 µM); in test [2] it was 6 ng/mL (≈ 0.0199 µM). In test [3], this compound returned an ED50 of 4.4 mg/kg. In test [4], this compound gave an IC50 of 400 nM. The change in vivo at 0.3 mg/kg in test [5] (setting [6]) is 9 ± 10%; in test [5] (setting [7]), -14 ± 9%. The change in vivo at 3 mg/kg in test [5] (setting [6]) was -9 ± 1%; in test [5] (setting [7]) it was -14 ± 8%.

`CN(C(=O)CCCOc1ccc2nc3[nH]c(=O)[nH]c3cc2c1)C1CCCCCC1` [Example 22, N-Cycloheptyl-N-methyl-4-[(2,3-dihydro-2-oxo-1H-imidazo[4,5-b]quinolin-7-yl)oxy]butanamide]: the EC50 was 7 ng/mL (≈ 0.0177 µM) in test [1] and 2 ng/mL (≈ 0.00504 µM) in test [2]. The compound also came in with an ED50 in test [3] of 6.2 mg/kg. Besides, the change in vivo at 0.3 mg/kg is 29 ± 5% in test [5] (setting [6]) and -26 ± 4% in test [5] (setting [7]).

With `CN(C(=O)CCCCOc1ccc2nc3[nH]c(=O)[nH]c3cc2c1)C1CCCCC1` [Example 32, N-Cyclohexyl-N-methyl-5-[(2,3-dihydro-2-oxo-1H-imidazo[4,5-b]quinolin-7-yl)oxo]pentanamide], the EC50 in test [1] was determined as 3 ng/mL (≈ 0.00757 µM); in test [2] it was 0.8 ng/mL (≈ 0.00202 µM). This compound also came in with an ED50 in test [3] of 3.8 mg/kg. For the same compound, inhibition in test [4] was half-maximal at 2 nM (IC50). Further, the change in vivo at 0.3 mg/kg in test [5] (setting [6]) is 18 ± 4%; in test [5] (setting [7]) it was -27 ± 10%.

For `O=C(CCCOc1ccc2nc3[nH]c(=O)[nH]c3cc2c1)NC12CC3CC(CC(C3)C1)C2` [Example 16, 4-[(2,3-Dihydro-2-oxo-1H-imidazo[4,5-b]quinolin-7-yl)oxy]-N-(tricyclo[3.3.1^3,7]decan-7-yl)butanamide], the EC50 in test [1] amounted to 50 ng/mL (≈ 0.119 µM); in test [2] it was 20 ng/mL (≈ 0.0476 µM). The compound further came in with an ED50 in test [3] of 4 mg/kg. In test [4], this compound had an IC50 of 1 nM. Further, the change in vivo at 3 mg/kg was 6 ± 3% in test [5] (setting [6]) and -10 ± 4% in test [5] (setting [7]).

Consider `CN(C(=O)CCCOc1ccc2nc3[nH]c(=O)[nH]c3cc2c1)C1CCCCC1` [Example 30, N-Cyclohexyl-N-methyl-4-[(2,3-dihydro-2-oxo-1H-imidazo[4,5-b]quinolin-7-yl)oxy]butanamide], for which the 50% effective concentration (EC50) in test [1] is 2 ng/mL (≈ 0.00523 µM). Further, the EC50 in test [2] is 1 ng/mL (≈ 0.00261 µM). Moreover, the 50% effect level in test [3] (ED50) was put at a dose of 2.4 mg/kg. Besides, in test [4], the IC50 was found to be 2 nM. Besides, in test [5] (setting [6]), the change in vivo at 0.03 mg/kg was found to be 8 ± 2%, the change in vivo at 0.3 mg/kg was 41 ± 5% and the change in vivo at 3 mg/kg was 35 ± 2%. In test [5] (setting [7]), the change in vivo at 0.03 mg/kg is -3%, the change in vivo at 0.3 mg/kg is -27 ± 6% and the change in vivo at 3 mg/kg was -30 ± 2%.

Turning to `COC(=O)CN(C(=O)CCCOc1ccc2nc3[nH]c(=O)[nH]c3cc2c1)C1CCCCC1` [Example 21, N-Cyclohexyl-N-[4-[(2,3-dihydro-2-oxo-1H-imidazo[4,5-b]quinolin-7-yl)oxy]-1-oxobutyl]glycine Methyl Ester], the EC50 came out at 2.5 ng/mL (≈ 0.00568 µM) in test [1] and 0.8 ng/mL (≈ 0.00182 µM) in test [2]. The compound also gave an ED50 in test [3] of under 3 mg/kg. For the same compound, in test [4], the IC50 is 0.5 nM. In addition, the results for the change in vivo at 3 mg/kg in test [5] (setting [6]) and in test [5] (setting [7]) were 26% and -26%, respectively.

Turning to `CN(C(=O)CCCCOc1ccc2nc3[nH]c(=O)[nH]c3cc2c1)C1CCCCCC1` [Example 33, N-Cycloheptyl-N-methyl-5-[(2,3-dihydro-2-oxo-1H-imidazo[4,5-b]quinolin-7-yl)oxy]pentanamide], the concentration for a half-maximal effect (EC50) in test [1] came out at 2 ng/mL (≈ 0.00487 µM); in test [2] it was 0.6 ng/mL (≈ 0.00146 µM). In test [3], this compound displayed an ED50 of 1.7 mg/kg. Moreover, in test [4], the midpoint of inhibition, the IC50, lay at 0.4 nM. Further, the change in vivo at 0.3 mg/kg was 27 ± 8% in test [5] (setting [6]) and -34 ± 2% in test [5] (setting [7]).

With `CN(C(=O)CCCOc1ccc2nc3nc(O)n(C)c3cc2c1)C1CCCCC1` [Example 31, N-Cyclohexyl-N-methyl-4-[(2,3-dihydro-1-methyl-2-oxo-1H-imidazo[4,5-b]quinolin-7-yl]oxo]butanamide], the EC50 in test [1] came out at 20 ng/mL (≈ 0.0504 µM); in test [2], 18 ng/mL (≈ 0.0454 µM). For the same compound, the ED50 in test [3] came out at 2.1 mg/kg. The compound also yielded an IC50 in test [4] of 200 nM. The change in vivo at 0.3 mg/kg in test [5] (setting [6]) is 0%; in test [5] (setting [7]), -28 ± 5%. Besides, the change in vivo at 3 mg/kg is 3 ± 6% in test [5] (setting [6]) and -36 ± 3% in test [5] (setting [7]).

On to `Cn1c(=O)[nH]c2nc3ccc(OCCCC(=O)NC4CCCCC4)cc3cc21` [Example 19, N-Cyclohexyl-4-[(2,3-dihydro-1-methyl-2-oxo 1H-imidazo[4,5-b]quinolin-7-yl)oxy]butanamide], for which the EC50 in test [1] was 70 ng/mL (≈ 0.183 µM); in test [2], 9 ng/mL (≈ 0.0235 µM). In test [3], this compound returned an ED50 of 8.3 mg/kg. Also, in test [4], the IC50 came out at 700 nM.

As for `O=c1[nH]c2cc3cc(OCCCCS(=O)(=O)c4ccccc4)ccc3nc2[nH]1` [Example 35, 7-[4-(Phenylsulfonyl)butoxy]-1,3-dihydro-2H-imidazo[4,5-b]quinolin-2-one], the EC50 in test [1] worked out at 70 ng/mL (≈ 0.176 µM). The same compound yielded an ED50 in test [3] of 4.3 mg/kg. Also, in test [4], the IC50 amounted to 1 nM. In addition, the change in vivo at 3 mg/kg was 11 ± 5% in test [5] (setting [6]) and -10 ± 8% in test [5] (setting [7]).

The term EC50 denotes the concentration giving half of the maximal effect. What is called ED50 is the dose that gives a 50% effect, or the effect in half of the subjects. High values mean weaker potency, low ones greater potency. Broadly, the IC50 is the concentration at which inhibition is half-maximal. A higher IC50 goes with weaker potency in that assay.
